# Results as given in patent EP0430884B1, “Insecticides and antiparasitic agents” (CIBA-GEIGY AG, priority 1989, dated 1991).
# Tested on: Haemonchus contortus und Trichostrongylus colubriformis
# Assay: B-3 test on sheep infected with nematodes (worm egg count in faeces)
# Type: in vivo, Schafe
# From the text: Milbemycine mit einer 13β-Alkylthiogruppe sind als Insektizide und Parasitizide aus der Europäischen Offenlegungsschrift EP-0,184,173 bzw. dem korrespondierenden Britischen Patent GB-2,167,751B bekannt. Die biologische Aktivität der 13β-Ethylthiomilbemycine kann man jedoch überraschenderweise durch Einführung der erfindungsgemässen, terminalen [drawing 26] (worin R₃ und X die unter Formel I angegebenen Bedeutungen haben) in die 2-Position der 13β-Ethylgruppe signifikant erhöhen. Vergleicht man z.B. die Verbindung Nr. 1.14 aus obigen Publikationen [drawing 27] mit der erfindungsgemässen Substanz Nr. 1.13 (vgl. Tab. 1) [drawing 28] gemäss dem weiter unten beschriebenen biologischen Beispiel B-3 an Schafen, die mit den Nematoden Haemonchus contortus und Trichostrongylus colubriformis infiziert wurden, so findet man bei einmaliger intraruminaler Applikation von 0,1 mg Aktivsubstanz/kg Körpergewicht folgende Resultate (angegeben in Reduktion der Wurmeier im Kot verglichen mit der Zahl der Eier bei infizierten, aber unbehandelten Schafen):
# Der Wirkstoff wird als Suspension formuliert mit einer Magensonde oder durch Injektion in den Pansen eines Schafes gegeben, das mit Haemonchus contortus und Trychostrongylus colubriformis künstlich infiziert worden ist. Pro Dosis werden 1 bis 3 Tiere verwendet. […]
smiles,measurement,setting,value
"CC[C@H]1O[C@]2(CC[C@@H]1C)C[C@@H]1C[C@@H](C/C=C(\C)[C@H](SCCc3ccc(NC(=O)OC)cc3)[C@@H](C)/C=C/C=C3\CO[C@@H]4[C@H](O)C(C)=C[C@@H](C(=O)O1)[C@]34O)O2 [1.13, 13β-(2-[4-(Methoxycarbonylamino)phenyl]ethylthio)milbemycin A4]","Reduktion der Wurmeier im Kot verglichen mit der Zahl der Eier bei infizierten, aber unbehandelten Schafen","Versuch 1, single intraruminal application of 0,1 mg Aktivsubstanz/kg Körpergewicht",99%
same,"Reduktion der Wurmeier im Kot verglichen mit der Zahl der Eier bei infizierten, aber unbehandelten Schafen","Versuch 2 (Wiederholung von 1), single intraruminal application of 0,1 mg Aktivsubstanz/kg Körpergewicht",93%
